Measurements taken from ChEMBL document CHEMBL5321209, “Design, synthesis of novel benzimidazole derivatives as ENL inhibitors suppressing leukemia cells viability via downregulating the expression of MYC” (Eur J Med Chem, 2023).
Active and inactive are the calls of the source. The calls are words filed in the database; no cut-off is given here.

What was measured:
MOLM-13 [1] = assay: Antiproliferative activity against human MOLM-13 cells assessed as inhibition of cell growth measured after 72 hrs by Cell Titer-Glo luminescent assay; assay type: functional, cell-based; settings: MOLM-13, 72 h
[2] = target: T1, Protein ENL (Homo sapiens) (UniProt Q03111); settings: dose 111.0 nM, time 45.0 min
T1 sequence (whole entry): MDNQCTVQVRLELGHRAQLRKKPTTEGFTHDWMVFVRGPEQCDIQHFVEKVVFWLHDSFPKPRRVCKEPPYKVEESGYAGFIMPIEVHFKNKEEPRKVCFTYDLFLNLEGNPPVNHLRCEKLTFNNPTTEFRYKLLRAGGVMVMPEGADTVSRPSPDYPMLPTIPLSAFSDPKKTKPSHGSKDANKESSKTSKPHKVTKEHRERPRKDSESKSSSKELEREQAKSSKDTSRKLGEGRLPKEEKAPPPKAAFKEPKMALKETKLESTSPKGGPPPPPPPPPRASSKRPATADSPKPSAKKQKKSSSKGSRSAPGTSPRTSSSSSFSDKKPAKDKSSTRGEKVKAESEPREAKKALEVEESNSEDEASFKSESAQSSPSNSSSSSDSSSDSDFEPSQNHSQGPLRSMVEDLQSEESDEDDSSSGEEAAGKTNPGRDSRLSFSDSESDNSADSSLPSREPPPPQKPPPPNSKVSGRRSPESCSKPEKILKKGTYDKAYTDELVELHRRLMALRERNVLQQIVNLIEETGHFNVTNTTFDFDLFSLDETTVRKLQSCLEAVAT

MV4-11 = assay: cells; settings: Homo sapiens, MV4-11, 72 h
Description: Antiproliferative activity against human MV4-11 cells assessed as inhibition of cell growth measured after 72 hrs by Cell Titer-Glo luminescent assay

Protein ENL [3] = target: T2, Protein ENL (Homo sapiens, UniProt Q03111); assay: Inhibition of C-terminal 6xHis-tagged ENL YEATS domain (1 to 148 residues) (unknown origin) expressed in Escherichia coli BL21(DE3) cells using biotin-H3K27ace as substrate incubated for 45 mins by alpha screen assay
T2 sequence (Q03111 whole entry): T1 sequence (whole entry)

[4] = target: T1, Protein ENL (Homo sapiens); settings: dose 333.0 nM, time 45.0 min
[5] = AUC (0 to t) in BALB/c mouse at 30 mg/kg, po measured after 0.5 to 24 hrs by LC-MS/MS assay; assay type: ADME, organism-based; set-up: dose 30 mg/kg, time 0.5-24 hrs, route po; settings: in vivo
[6] = Tmax in BALB/c mouse at 30 mg/kg, po measured after 0.5 to 24 hrs by LC-MS/MS assay; assay type: ADME, organism-based; settings: in vivo, time 0.5-24 hrs
[7] = Downregulation of MYC gene expression in human MOLM-13 cells assessed as decrease in fold change at 5 uM for 72 hrs by RT-PCR method relative to JQ-1; assay type: functional
[8] = target: YEATS domain-containing protein 4 (Homo sapiens) (UniProt O95619); assay: Binding affinity recombinant GAS41 YEATS domain (15 to 159 residues) (unknown origin) assessed as thermal stability
Chain of YEATS domain-containing protein 4 (Homo sapiens) (O95619 whole entry, the tested form may be a part): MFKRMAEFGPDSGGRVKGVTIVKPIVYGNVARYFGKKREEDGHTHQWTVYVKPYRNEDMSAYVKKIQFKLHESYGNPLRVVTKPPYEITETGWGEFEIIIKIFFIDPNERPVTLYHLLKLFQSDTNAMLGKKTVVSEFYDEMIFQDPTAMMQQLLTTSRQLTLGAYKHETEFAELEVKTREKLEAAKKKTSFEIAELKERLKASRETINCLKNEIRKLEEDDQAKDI

[9] = MRT (0 to infinity) in BALB/c mouse at 30 mg/kg, po measured after 0.5 to 24 hrs by LC-MS/MS assay; assay type: ADME, organism-based; settings: in vivo, time 0.5-24 hrs
[10] = Cytotoxicity against HUVEC-C incubated for 72 hrs by Cell Titer-Glo luminescent assay; assay type: toxicity, cell-based; settings: human
[11] = target: T1, Protein ENL (Homo sapiens); settings: dose 12.5 µM
Description: Binding affinity to C-terminal 6xHis-tagged ENL YEATS domain (1 to 148 residues) (unknown origin) expressed in Escherichia coli BL21(DE3) cells assessed as thermal stability by measuring change in melting temperature at 12.5 uM by SYPRO dye-based thermal shift assay

[12] = Cmax in BALB/c mouse at 30 mg/kg, po measured after 0.5 to 24 hrs by LC-MS/MS assay; assay type: ADME, organism-based; set-up: dose 30 mg/kg, time 0.5-24 hrs, route po; settings: in vivo
[13] = Downregulation of MYC mRNA level in human MOLM-13 cells at 5 uM incubated for 72 hrs by RT-PCR method relative to control; assay type: functional
[14] = target: YEATS domain-containing protein 4 (Homo sapiens) (UniProt O95619); assay: Binding affinity recombinant GAS41 YEATS domain (15 to 159 residues) (unknown origin) expressed in Escherichia coli BL21(DE3) cells by SPR assay
MRC5 = assay: Cytotoxicity against human MRC5 cells incubated for 72 hrs by Cell Titer-Glo luminescent assay; assay type: toxicity, cell-based; settings: mrc5, 72 h
[15] = Half life in BALB/c mouse at 30 mg/kg, po measured after 0.5 to 24 hrs by LC-MS/MS assay; assay type: ADME, organism-based; settings: in vivo, time 0.5-24 hrs
Protein ENL [16] = target: T2, Protein ENL; assay: Binding affinity to C-terminal 6xHis-tagged ENL YEATS domain (1 to 148 residues) (unknown origin) expressed in Escherichia coli BL21(DE3) cells assessed as dissociation constant by SPR analysis
[17] = AUC (0 to infinity) in BALB/c mouse at 30 mg/kg, po measured after 0.5 to 24 hrs by LC-MS/MS assay; assay type: ADME, organism-based; set-up: time lower 0.5 hrs, dose 30 mg/kg, time upper 24 hrs, route po; settings: in vivo
[18] = Downregulation of MYC gene expression in human MOLM-13 cells assessed as fold increase at 5 uM incubated for 72 hrs in presence of JQ-1 by RT-PCR method; assay type: functional
MOLM-13 [19] = assay: Potency index, ratio of SGC-iMLLT IC50 to test compound IC50 for antiproliferative activity against human MOLM-13 cells; assay type: functional
[20] = target: T1, Protein ENL (Homo sapiens); settings: dose 50.0 µM
[21] = target: T1, Protein ENL (Homo sapiens); settings: dose 6.3 µM
Description: Binding affinity to C-terminal 6xHis-tagged ENL YEATS domain (1 to 148 residues) (unknown origin) expressed in Escherichia coli BL21(DE3) cells assessed as thermal stability by measuring change in melting temperature at 6.3 uM by SYPRO dye-based thermal shift assay

[22] = target: T1, Protein ENL (Homo sapiens); settings: dose 25.0 µM
Protein ENL [23] = target: T2, Protein ENL; assay: Inhibition of C-terminal ENL YEATS domain (unknown origin) (M1 to A148 residues) using biotinylated peptide as substrate by alpha screen assay
Protein ENL [24] = target: T2, Protein ENL; assay: Binding affinity to C-terminal ENL YEATS domain (unknown origin) (M1 to A148 residues) assessed as dissociation constant by ITC assay
Protein ENL [25] = target: T2, Protein ENL; assay: Inhibition of recombinantC-terminal 6xHis-tagged ENL YEATS domain (1 to 148 residues) (unknown origin) expressed in Escherichia coli BL21(DE3) cells using H3(13-32)K27cr as substrate by FRET assay
Protein ENL [26] = target: T2, Protein ENL; assay: Binding affinity toC-terminal 6xHis-tagged ENL YEATS domain (1 to 148 residues) (unknown origin) assessed as dissociation constant by BLI assay

SMILES: C[C@H]1CCCN1Cc1nc2cc(NC(=O)N3C(CO)C(O)C(O)C3CO)ccc2[nH]1 (stereo partly specified)
- IC50 (MOLM-13 [1]): > 100000 nM
- inhibition [2]: 79.5%
- IC50 (MV4-11): > 100000 nM
- IC50 (Protein ENL [3]): 22 nM
- inhibition [4]: 98.5%

SMILES: C[C@H]1CCCN1Cc1nc2cc(NC(=O)c3ccc4c(c3)c3ccccc3c(=O)n4C)ccc2[nH]1
- AUC(0-t) [5]: 257 ng·h/mL
- Tmax [6]: 0.5 h
- fold change (FC) [7]: <2.5
- Activity [8]: inactive
- IC50 (MOLM-13 [1]): 8300 nM
- MRT inf [9]: 5.5 h
- Activity [10]: Non-Toxic
- ΔTm [11]: 3.3 °C
- Cmax [12]: 71.8 ng/mL
- Activity [13]: 50%
- Activity [14]: inactive
- Activity (MRC5): Non-Toxic
- half-life [15]: 5.2 h
- Kd (Protein ENL [16]): 17 nM
- inhibition [2]: 99.6%
- AUC(0-inf) [17]: 272 ng·h/mL
- fold change (FC) [18]: >5
- Ratio IC50 (MOLM-13 [19]): 9
- ΔTm [20]: 5.5 °C
- IC50 (MV4-11): 4800 nM
- IC50 (Protein ENL [3]): 15.4 nM
- ΔTm [21]: 1.9 °C
- inhibition [4]: 100%
- ΔTm [22]: 4.3 °C

SMILES: C[C@H]1CCCN1Cc1nc2cc(NC(=O)c3ccc4c(c3)c3cc(F)ccc3c(=O)n4C)ccc2[nH]1
- inhibition [2]: 90.8%
- IC50 (Protein ENL [3]): 22.1 nM
- inhibition [4]: 99.2%

SMILES: Cc1noc2cc(C(=O)Nc3ccc4[nH]c(CN5CCC[C@@H]5C)nc4c3)ccc12
- IC50 (MOLM-13 [1]): 37900 nM
- ΔTm [11]: 2.8 °C
- inhibition [2]: 99.1%
- Ratio IC50 (MOLM-13 [19]): 2
- ΔTm [20]: 4.9 °C
- IC50 (MV4-11): 51400 nM
- IC50 (Protein ENL [3]): 10.7 nM
- ΔTm [21]: 1.8 °C
- inhibition [4]: 99.9%
- ΔTm [22]: 3.9 °C

SMILES: C[C@H]1CCCN1Cc1nc2cc(NC(=O)c3ccc4nn(C)cc4c3)ccc2[nH]1
- inhibition [2]: 86.8%
- IC50 (Protein ENL [3]): 77 nM
- inhibition [4]: 99.6%

SMILES: C[C@H]1CCCN1Cc1nc2cc(NC(=O)c3ccc4c(cnn4CCNC(=O)c4ccccc4)c3)ccc2[nH]1
- inhibition [2]: 86.2%
- IC50 (Protein ENL [3]): 19.2 nM
- inhibition [4]: 99%

SMILES: C[C@H]1CCCN1Cc1nc2cc(NC(=O)c3ccc4c(cnn4CCN4CCOCC4)c3)ccc2[nH]1
- IC50 (MOLM-13 [1]): 39600 nM
- ΔTm [11]: 1.3 °C
- inhibition [2]: 98.3%
- Ratio IC50 (MOLM-13 [19]): 2
- ΔTm [20]: 3.5 °C
- IC50 (Protein ENL [3]): 14.5 nM
- ΔTm [21]: 0.8 °C
- inhibition [4]: 99.9%
- ΔTm [22]: 2 °C

SMILES: C[C@H]1CCCN1Cc1nc2cc(NC(=O)c3ccc4c(cnn4CCNC(=O)Nc4cccc(F)c4)c3)ccc2[nH]1
- inhibition [2]: 67.6%
- IC50 (Protein ENL [3]): 46 nM
- inhibition [4]: 97.8%

SMILES: C[C@H]1CCCN1Cc1nc2cc(NC(=O)c3ccc4c(cnn4CCN)c3)ccc2[nH]1
- inhibition [2]: 100%
- IC50 (Protein ENL [3]): 28.2 nM
- inhibition [4]: 100%

SMILES: C[C@H]1CCCN1Cc1nc2cc(NC(=O)c3ccc4c(cnn4CCN4CC(O)C(O)C4C(O)CO)c3)ccc2[nH]1 (stereo partly specified)
- inhibition [2]: 84.6%
- IC50 (Protein ENL [3]): 32.3 nM
- inhibition [4]: 99.3%

SMILES: CCn1ncc2cc(C(=O)Nc3ccc4[nH]c(CN5CCC[C@@H]5C)nc4c3)ccc21
- inhibition [2]: 98.3%
- IC50 (Protein ENL [3]): 18.9 nM
- inhibition [4]: 100%

SMILES: Cc1nnc2ccc(C(=O)Nc3ccc4[nH]c(CN5CCC[C@@H]5C)nc4c3)cn12
- inhibition [2]: 57%
- IC50 (Protein ENL [3]): 267 nM
- inhibition [4]: 84.5%

SMILES: COC(=O)c1ccc(C(=O)Nc2ccc3[nH]c(CN4CCCCC4)nc3c2)cc1
- IC50 (Protein ENL [23]): 1600 nM
- Kd (Protein ENL [24]): 754 nM

SMILES: O=C(/C=C/c1ccc(-n2ccnc2)cc1)N1CCN(C(=O)c2ccco2)CC1
- IC50 (Protein ENL [25]): 19000 nM
- Kd (Protein ENL [26]): 14000 nM
